We go through three compounds from PMC4685510, “A Cell Biologist’s Field Guide to Aurora Kinase Inhibitors” (Frontiers in Oncology, 2015).

Structures are written as SMILES.

The target of assay [1] is T1, 363 human kinases (including Aurora A/B/C) (Homo sapiens, UniProt Q9UQB9).
T1 sequence (Q9UQB9 1-309): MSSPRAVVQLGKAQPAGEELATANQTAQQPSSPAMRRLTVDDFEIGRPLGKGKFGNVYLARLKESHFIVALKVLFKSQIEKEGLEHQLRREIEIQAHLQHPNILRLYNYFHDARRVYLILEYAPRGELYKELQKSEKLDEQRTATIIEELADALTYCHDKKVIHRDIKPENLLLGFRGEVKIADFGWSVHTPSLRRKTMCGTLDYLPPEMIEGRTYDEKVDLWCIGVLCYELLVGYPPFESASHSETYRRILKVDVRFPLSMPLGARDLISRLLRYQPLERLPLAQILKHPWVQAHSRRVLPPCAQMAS
Description: biochemical. It is filed as biochemical. The note with it: Aurora C, [ATP] 30 µM.
Description: (§1) However, the Aurora A/B selectivity ratios derived from our in vitro and in vivo data can be compared to prioritize inhibitors.

Assay [2] relates to HeLa cells. The assay can be described thus: Cytokinesis assay (live imaging, YFP-α-tubulin; H2B-RFP), HeLa. It is filed as cell-based, human. The note with it: Homo sapiens; HeLa; cytokinesis failure; read-out: Cytokinesis IC50.
A further assay has as its system RPE1 cells. Description: Cytokinesis assay (live imaging, YFP-α-tubulin; H2B-RFP), RPE1. It is filed as cell-based. The note with it: Homo sapiens, RPE-1; RPE1; cytokinesis failure; read-out: Cytokinesis IC50.
For the next assay, the target named is Aurora A-TPX2. The note with it: ref 61; read-out: Aurora A-TPX2 Ki (Published); cited from earlier work.
Assay [3] addresses 363 human kinases (including Aurora A/B/C) (Homo sapiens, UniProt P00519). The assay can be described thus: biochemical. To be noted: ABL1, [ATP] 40 µM. In kind it is biochemical.
Description: as §1
Assay [4] addresses T2, 363 human kinases (including Aurora A/B/C) (Homo sapiens, UniProt P36888).
T2 sequence (P36888 27-993): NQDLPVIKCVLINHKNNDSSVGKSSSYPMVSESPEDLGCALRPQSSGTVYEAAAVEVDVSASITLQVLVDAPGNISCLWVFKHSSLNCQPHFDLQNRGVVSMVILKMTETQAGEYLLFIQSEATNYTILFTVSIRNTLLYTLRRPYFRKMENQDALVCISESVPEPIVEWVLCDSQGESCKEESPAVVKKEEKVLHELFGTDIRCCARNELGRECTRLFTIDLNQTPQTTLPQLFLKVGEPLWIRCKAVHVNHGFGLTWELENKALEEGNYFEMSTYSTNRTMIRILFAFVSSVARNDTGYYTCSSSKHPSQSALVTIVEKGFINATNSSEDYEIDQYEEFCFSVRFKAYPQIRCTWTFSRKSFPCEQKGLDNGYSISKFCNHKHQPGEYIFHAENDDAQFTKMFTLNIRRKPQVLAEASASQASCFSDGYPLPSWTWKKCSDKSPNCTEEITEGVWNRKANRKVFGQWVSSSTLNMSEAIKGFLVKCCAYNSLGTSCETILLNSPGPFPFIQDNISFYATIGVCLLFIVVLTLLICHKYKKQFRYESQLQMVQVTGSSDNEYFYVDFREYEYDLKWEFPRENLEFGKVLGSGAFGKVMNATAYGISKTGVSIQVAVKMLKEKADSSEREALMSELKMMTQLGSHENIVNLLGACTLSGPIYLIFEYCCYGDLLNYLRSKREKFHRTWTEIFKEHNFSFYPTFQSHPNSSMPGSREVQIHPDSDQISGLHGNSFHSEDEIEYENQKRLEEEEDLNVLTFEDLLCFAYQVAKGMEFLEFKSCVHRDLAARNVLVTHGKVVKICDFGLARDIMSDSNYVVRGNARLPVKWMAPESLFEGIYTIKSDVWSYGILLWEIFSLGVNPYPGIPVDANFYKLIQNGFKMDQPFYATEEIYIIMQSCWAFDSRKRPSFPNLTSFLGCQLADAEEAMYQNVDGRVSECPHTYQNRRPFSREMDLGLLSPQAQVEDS
Description: biochemical. It is filed as biochemical. The note with it: FLT3, [ATP] 50 µM.
Description: as §1

Assay [5] addresses 363 human kinases (including Aurora A/B/C) (Homo sapiens, UniProt P48730). The assay can be described thus: biochemical. It is filed as biochemical. To be noted: CK1d, [ATP] 20 µM.
Description: as §1
For assay [6], the target named is T3, 363 human kinases (including Aurora A/B/C) (Homo sapiens, UniProt Q15831).
T3 sequence (Q15831 1-433): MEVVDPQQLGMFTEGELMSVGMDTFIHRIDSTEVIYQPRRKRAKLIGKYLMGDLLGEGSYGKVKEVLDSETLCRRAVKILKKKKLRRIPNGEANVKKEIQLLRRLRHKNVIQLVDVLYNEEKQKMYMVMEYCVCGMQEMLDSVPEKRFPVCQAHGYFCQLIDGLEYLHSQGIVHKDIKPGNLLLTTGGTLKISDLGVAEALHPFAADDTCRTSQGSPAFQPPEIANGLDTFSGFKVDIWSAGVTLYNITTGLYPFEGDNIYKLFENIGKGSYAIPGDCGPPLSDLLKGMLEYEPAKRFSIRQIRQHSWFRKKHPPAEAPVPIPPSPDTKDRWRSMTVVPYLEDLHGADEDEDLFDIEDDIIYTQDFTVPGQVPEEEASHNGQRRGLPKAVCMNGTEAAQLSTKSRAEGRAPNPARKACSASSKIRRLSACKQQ
Description: biochemical. In kind it is biochemical. To be noted: LKB1.
Description: as §1

The subject of assay [7] is HeLa cells. The assay can be described thus: G2 duration live imaging assay (GFP-PCNA; H2B-RFP), HeLa. In kind it is cell-based, human.
The next assay concerns U2OS cells. The assay can be described thus: G2 duration live imaging assay (GFP-PCNA; H2B-RFP), U2OS. It is filed as cell-based. To be noted: Homo sapiens, read-out: G2/M (G2 duration) IC50.
In another assay the target is T4, Aurora B/INCENP^783–918 (Homo sapiens, UniProt Q96GD4).
T4 construct: purchased SignalChem
T4 sequence (Q96GD4 whole entry): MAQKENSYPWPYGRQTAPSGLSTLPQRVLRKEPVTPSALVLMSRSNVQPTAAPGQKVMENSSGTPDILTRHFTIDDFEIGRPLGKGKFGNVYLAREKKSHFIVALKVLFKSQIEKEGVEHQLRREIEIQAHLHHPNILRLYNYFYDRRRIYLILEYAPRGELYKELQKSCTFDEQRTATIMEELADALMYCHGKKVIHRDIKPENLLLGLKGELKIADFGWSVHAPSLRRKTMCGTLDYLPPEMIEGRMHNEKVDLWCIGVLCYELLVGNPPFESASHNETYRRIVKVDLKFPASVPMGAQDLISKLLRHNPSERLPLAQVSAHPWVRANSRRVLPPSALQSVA
T4 sequence (Q9NQS7 783-918 partner limits assumed): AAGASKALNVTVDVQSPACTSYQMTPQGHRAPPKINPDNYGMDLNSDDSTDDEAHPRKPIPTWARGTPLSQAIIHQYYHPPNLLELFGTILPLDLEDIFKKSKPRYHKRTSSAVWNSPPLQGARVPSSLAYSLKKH
The assay can be described thus: Aurora B/INCENP^783–918 kinase assay (ADP-Glo). In kind it is biochemical.

Assay [8] deals with 363 human kinases (including Aurora A/B/C) (Homo sapiens, UniProt Q16584). Description: biochemical. It is filed as biochemical. The note with it: MLK3/MAP3K11, 500 nM.
363 human kinases (including Aurora A/B/C) (Homo sapiens, UniProt Q16584), sequence (Q16584 whole entry): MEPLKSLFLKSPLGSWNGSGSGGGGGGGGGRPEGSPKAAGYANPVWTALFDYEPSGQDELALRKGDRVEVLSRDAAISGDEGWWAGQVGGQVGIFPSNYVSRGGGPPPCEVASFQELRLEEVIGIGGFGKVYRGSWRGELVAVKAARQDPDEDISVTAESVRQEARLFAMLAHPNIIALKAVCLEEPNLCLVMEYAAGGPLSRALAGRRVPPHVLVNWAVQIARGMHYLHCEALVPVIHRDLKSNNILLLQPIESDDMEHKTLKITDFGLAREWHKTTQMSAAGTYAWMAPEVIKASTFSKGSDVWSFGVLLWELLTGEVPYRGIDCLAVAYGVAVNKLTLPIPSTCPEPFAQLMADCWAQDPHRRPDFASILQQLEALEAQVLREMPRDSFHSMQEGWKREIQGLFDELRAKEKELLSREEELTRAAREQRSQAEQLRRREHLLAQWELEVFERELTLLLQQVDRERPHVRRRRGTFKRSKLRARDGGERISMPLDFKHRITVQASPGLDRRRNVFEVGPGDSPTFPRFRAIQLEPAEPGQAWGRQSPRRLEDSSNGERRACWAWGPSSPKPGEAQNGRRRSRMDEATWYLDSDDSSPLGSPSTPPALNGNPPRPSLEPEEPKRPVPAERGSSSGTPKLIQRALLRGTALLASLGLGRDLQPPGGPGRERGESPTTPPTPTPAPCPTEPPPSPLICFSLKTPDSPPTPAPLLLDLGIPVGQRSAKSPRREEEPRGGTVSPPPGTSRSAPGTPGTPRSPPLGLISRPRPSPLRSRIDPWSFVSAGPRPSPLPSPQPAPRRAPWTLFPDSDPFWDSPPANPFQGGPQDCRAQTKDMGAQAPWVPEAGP
Description: as §1
For another assay, the system named is Aurora A. The note with it: ref 57; read-out: Aurora A IC50 (Published); cited from earlier work.
[9] abbreviates: 100 nM, read-out: % Enzyme Activity (relative to DMSO controls).
Where [10] appears, read: 500 nM, read-out: % Enzyme Activity (relative to DMSO controls).
Setting [11] is: Homo sapiens, read-out: G2/M (G2 duration) IC50, HeLa.
The mark [12] stands for this setting: read-out: G2/M (G2 duration) IC50.

363 human kinases (including Aurora A/B/C) (Homo sapiens, UniProt P48730), sequence (P48730 whole entry): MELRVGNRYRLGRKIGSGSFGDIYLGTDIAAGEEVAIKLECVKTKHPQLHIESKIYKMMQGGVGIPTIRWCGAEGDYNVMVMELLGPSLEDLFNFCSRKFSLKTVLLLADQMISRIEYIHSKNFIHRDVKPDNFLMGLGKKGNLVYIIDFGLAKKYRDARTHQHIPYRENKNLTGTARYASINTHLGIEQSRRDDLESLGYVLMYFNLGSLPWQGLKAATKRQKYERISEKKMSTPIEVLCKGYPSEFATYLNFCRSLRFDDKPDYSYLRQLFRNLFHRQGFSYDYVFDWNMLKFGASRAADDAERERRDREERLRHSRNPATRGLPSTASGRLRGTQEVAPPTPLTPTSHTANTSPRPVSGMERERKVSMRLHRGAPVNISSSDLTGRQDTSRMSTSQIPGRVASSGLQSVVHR
363 human kinases (including Aurora A/B/C) (Homo sapiens, UniProt P00519), sequence (P00519 whole entry): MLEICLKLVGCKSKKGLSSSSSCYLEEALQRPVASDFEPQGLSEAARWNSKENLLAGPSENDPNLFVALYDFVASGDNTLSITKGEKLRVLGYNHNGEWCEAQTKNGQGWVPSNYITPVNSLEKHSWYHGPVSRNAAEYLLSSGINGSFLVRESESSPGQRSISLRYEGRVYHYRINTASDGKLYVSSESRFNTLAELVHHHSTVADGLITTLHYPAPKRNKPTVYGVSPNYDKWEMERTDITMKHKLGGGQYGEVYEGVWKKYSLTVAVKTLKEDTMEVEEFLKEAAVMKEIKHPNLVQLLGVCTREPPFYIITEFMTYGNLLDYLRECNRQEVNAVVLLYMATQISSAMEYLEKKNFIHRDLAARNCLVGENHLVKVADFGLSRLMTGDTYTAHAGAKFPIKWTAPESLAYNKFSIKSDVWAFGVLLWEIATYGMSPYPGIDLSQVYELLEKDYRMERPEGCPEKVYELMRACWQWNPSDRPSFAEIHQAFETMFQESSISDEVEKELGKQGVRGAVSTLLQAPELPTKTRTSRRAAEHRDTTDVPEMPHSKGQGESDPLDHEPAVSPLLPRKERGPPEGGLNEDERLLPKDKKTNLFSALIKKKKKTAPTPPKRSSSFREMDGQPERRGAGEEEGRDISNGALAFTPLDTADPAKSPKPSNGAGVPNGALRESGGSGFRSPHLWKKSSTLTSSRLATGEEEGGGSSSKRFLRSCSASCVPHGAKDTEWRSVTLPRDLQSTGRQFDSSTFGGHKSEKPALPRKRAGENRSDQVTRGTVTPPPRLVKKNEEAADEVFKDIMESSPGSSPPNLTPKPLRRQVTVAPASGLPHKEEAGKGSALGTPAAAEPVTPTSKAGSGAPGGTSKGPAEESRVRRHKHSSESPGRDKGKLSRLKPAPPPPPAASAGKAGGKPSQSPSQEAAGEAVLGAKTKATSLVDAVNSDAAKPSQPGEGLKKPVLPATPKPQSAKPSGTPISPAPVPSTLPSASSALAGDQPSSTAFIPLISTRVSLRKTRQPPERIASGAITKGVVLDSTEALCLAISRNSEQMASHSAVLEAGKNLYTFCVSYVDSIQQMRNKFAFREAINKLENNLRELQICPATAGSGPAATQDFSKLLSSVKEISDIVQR

In the case of `CCn1cc(-c2ccnc3[nH]c(-c4cccc(CN(C)C)c4)cc23)c(-c2ccc(NC(=O)N(C)C)cc2)n1` [GSK1070916], the remaining activity at 0.1 µM in assay [1] (setting [9]) stood at 39.7%. The figures for the IC50 in the assay with HeLa cells [2] and in the assay with RPE1 cells were 0.006 µM and 0.021 µM, respectively. Moreover, on Aurora A-TPX2, the Ki was 0.492 µM.

Consider `O=C(O)[C@]1(Cc2cccc(Nc3nccs3)n2)CC[C@@H](Oc2cccc(Cl)c2F)CC1` [MK-5108], for which the remaining activity at 0.1 µM in assay [3] (setting [9]) came out at 15.6%; in assay [4] (setting [9]), 58.2%; in [5] (setting [9]), 100%; in assay [6] (setting [9]) it was 76.6%. Moreover, the remaining activity at 0.5 µM in [3] (setting [10]) was 1.92%; in assay [4] (setting [10]), 30.9%; in assay [5] (setting [10]) it was 86.8%; in assay [6] (setting [10]) it was 47.4%. Also, the IC50 in the assay on HeLa cells [7] (setting [11]) is 0.6 to 0.8 µM; in the assay with HeLa cells [7] (setting [12]), 0.816 µM; in the assay with U2OS cells it was 0.995 µM.

Consider `O=C(c1cccc(Cl)c1F)N1CCN(Cc2cccc(Nc3nccs3)n2)CC1` [MK-8745], for which the Ki is 0.0588 µM at Aurora B/INCENP^783–918 (Aurora B INCENP^783-918 Ki (example dataset, Figure 2D), calculated from the example IC50) and 0.0668 ± 0.0196 µM on Aurora B/INCENP^783–918 (Aurora B-INCENP^783–918 Ki Mean ± SD, [ATP] = Km(ATP) (10 μM)). The IC50 against Aurora B/INCENP^783–918 ([ATP] = Km(ATP), example dataset) is 0.118 µM; in the assay on HeLa cells [7] (setting [11]), 0.6 to 0.8 µM; in the assay with HeLa cells [7] (setting [12]), 0.596 µM; in the assay with U2OS cells, 0.437 µM; with Aurora A, 0.0006 µM. For the same compound, the “% Enzyme Activity (relative to DMSO controls)” value in [3] (500 nM) stood at 76.80%; in assay [4] (500 nM), 88.10%; in assay [5] (500 nM), 85.06%; in assay [6] (500 nM) it was 25.85%; in assay [8], 92.79%; in assay [1] (500 nM), 46.69%. For the same compound, the remaining activity at 0.5 µM worked out at 77.7% in [3] (setting [10]); 88.4% in assay [4] (setting [10]); 85.5% in [5] (setting [10]); 26.1% in assay [6] (setting [10]); 94.8% in assay [8] (read-out: % Enzyme Activity (relative to DMSO controls)); 47.4% in [1] (setting [10]).

One may read the Ki as a measure of affinity in units of concentration, obtained from inhibition or displacement.
